Results as given in ChEMBL document CHEMBL1149563 (Bioorg Med Chem Lett, 2007).

Assays:
Androgen receptor [1] = target: T1, Androgen receptor (Homo sapiens, UniProt P10275); experiment: Displacement of [3H]DHT from human androgen receptor in MDA453 cells; type: cell-based
T1 sequence (P10275 whole entry): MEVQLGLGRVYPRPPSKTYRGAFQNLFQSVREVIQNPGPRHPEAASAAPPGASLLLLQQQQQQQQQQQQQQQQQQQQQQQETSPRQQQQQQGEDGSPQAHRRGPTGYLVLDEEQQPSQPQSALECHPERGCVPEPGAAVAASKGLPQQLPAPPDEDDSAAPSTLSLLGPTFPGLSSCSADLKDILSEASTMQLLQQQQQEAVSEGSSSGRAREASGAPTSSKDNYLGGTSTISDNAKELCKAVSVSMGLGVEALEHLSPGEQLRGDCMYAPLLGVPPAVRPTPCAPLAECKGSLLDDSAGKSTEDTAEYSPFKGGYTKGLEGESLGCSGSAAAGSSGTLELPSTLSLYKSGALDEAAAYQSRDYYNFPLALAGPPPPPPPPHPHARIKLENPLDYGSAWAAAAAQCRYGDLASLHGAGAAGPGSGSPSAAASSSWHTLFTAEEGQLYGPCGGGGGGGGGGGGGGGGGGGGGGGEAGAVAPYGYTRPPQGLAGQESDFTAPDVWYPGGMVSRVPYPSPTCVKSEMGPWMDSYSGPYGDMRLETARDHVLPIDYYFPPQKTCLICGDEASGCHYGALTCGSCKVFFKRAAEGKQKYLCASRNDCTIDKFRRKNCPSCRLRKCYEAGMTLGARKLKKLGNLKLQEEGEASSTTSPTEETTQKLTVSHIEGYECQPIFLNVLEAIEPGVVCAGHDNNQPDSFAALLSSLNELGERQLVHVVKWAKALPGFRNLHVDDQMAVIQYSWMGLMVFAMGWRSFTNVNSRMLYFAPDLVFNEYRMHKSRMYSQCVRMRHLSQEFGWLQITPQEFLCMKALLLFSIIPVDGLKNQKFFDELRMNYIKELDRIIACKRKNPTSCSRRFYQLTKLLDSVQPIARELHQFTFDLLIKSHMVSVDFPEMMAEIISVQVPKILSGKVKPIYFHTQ

Androgen receptor [2] = target: T2, Androgen receptor (Mus musculus, UniProt P19091)
T2 sequence (P19091 whole entry): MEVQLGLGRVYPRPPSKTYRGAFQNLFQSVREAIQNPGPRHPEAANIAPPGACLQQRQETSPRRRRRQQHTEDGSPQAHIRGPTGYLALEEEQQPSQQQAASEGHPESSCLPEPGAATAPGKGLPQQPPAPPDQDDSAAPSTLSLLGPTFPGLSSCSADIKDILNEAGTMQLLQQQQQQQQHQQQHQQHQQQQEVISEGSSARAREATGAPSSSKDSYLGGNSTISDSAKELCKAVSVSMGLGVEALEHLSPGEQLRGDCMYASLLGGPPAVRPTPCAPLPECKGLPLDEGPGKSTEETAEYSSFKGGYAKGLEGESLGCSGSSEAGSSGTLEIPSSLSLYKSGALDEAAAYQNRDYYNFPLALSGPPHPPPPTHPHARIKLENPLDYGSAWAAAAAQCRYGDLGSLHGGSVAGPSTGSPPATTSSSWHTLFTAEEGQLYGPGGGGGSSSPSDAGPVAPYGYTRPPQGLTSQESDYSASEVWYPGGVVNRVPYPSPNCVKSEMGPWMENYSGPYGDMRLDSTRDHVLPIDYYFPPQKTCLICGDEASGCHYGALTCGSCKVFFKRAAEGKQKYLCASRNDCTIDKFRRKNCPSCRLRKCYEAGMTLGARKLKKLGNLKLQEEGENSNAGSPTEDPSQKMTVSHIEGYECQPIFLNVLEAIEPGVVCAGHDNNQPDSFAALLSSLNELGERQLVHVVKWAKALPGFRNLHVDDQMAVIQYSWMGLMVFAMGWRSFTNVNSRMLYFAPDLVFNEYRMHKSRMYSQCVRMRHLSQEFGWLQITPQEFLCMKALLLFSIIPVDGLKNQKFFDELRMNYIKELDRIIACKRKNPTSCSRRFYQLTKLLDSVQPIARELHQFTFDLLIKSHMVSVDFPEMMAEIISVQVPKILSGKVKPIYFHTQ
Description: Antagonist activity at androgen receptor in mouse C2C12 cells by receptor transactivation assay

Androgen receptor [3] = target: T2, Androgen receptor; experiment: Agonist activity at androgen receptor in mouse C2C12 cells by receptor transactivation assay; type: functional, cell-based
Rattus norvegicus [4] = experiment: Effect on levator ani muscle weight in castrated rat at 0.3 mg/kg, sc after 14 days relative to intact rat; type: functional; settings: route subcutaneous
Rattus norvegicus [5] = experiment: Effect on […] in castrated rat at 0.3 mg/kg, sc after 14 days relative to intact rat; type: functional; settings: route subcutaneous
Rattus norvegicus [6] = experiment: Effect on […] in castrated rat at 10 mg/kg, po after 14 days relative to intact rat; type: functional
[7] = Cmax in rat at 5 mg/kg, iv or 10 mg/kg, po; type: ADME, organism-based; settings: in vivo
[8] = Clearance in rat at 5 mg/kg, iv or 10 mg/kg, po; type: ADME, organism-based; settings: in vivo
Rattus norvegicus [9] = experiment: Effect on levator ani muscle weight in castrated rat at 10 mg/kg, po after 14 days relative to intact rat; type: functional
[10] = Oral bioavailability in rat at 10 mg/kg; type: ADME, organism-based; settings: in vivo
[11] = Half life in rat at 5 mg/kg, iv or 10 mg/kg, po; type: ADME, organism-based; settings: in vivo

Compound | Ki (Androgen receptor [1]) [nM] | EC50 (Androgen receptor [3]) [nM] | also measured
COC(=O)[C@@H]1[C@H](O)CCN1S(=O)(=O)c1ccc(C#N)c(Cl)c1C | 36 | > 3000 | IC50 (Androgen receptor [2]): 278 nM
Cc1c(N2C(=O)[C@@H]3[C@@H](O)CCN3S2(=O)=O)ccc(C#N)c1Cl | 29 | 2960 | 
CCC(=O)O[C@H]1CC[C@H]2[C@@H]3CCC4=CC(=O)CC[C@]4(C)[C@H]3CC[C@]12C [TESTOSTERONE PROPIONATE] | 0.25 | 2.8 | Activity (Rattus norvegicus [4]): 70%; Activity (Rattus norvegicus [5]): 70%
Cc1c(N2C(C)[C@@H]3[C@@H](O)CCN3S2(=O)=O)ccc(C#N)c1Cl (stereo not given in full) | 20 | 8960 | 
Cc1c(N2C(=O)[C@]3(C)[C@H](O)CCN3S2(=O)=O)ccc(C#N)c1Cl | 8.2 | 1250 | 
Cc1c(N2C[C@@H]3[C@H](O)CCN3S2(=O)=O)ccc(C#N)c1Cl | 14 | 7730 | 
COC(=O)[C@@H]1[C@H](O)CCN1S(=O)(=O)Nc1ccc(C#N)c(Cl)c1C |  | 7460 | 
Cc1c(NS(=O)(=O)N2CC[C@@H](O)[C@H]2C(=O)O)ccc(C#N)c1Cl |  | 2.8 | 
Cc1c(N2C(=O)[C@@H]3[C@H](O)CCN3C2=O)ccc(C#N)c1Cl |  | 0.44 | 
Cc1c(N2C(=O)[C@@H]3[C@H](O)CCN3S2(=O)=O)ccc(C#N)c1Cl | 0.45 | 11.9 | Activity (Rattus norvegicus [6]): 10%; Cmax [7]: 8.4 µM; clearance [8]: 12.8 mL/min/kg; Activity (Rattus norvegicus [9]): 70%; bioavailability [10]: 53%; half-life [11]: 54 min
Cc1c(N2C(=O)[C@@H]3C[C@H](O)CN3S2(=O)=O)ccc(C#N)c1Cl | 44 | 3520 | 
Cc1c(N2C[C@@H]3[C@@H](O)CCN3S2(=O)=O)ccc(C#N)c1Cl | 189 |  | 
N#Cc1ccc(N2C(=O)[C@@H]3[C@H](O)CCN3C2=O)c2ccccc12 |  | 2.3 | 
